Assay results published in the supplement of paper PMC6045584.
± gives the standard deviation of the averaged measurements.

Tests used:
[1] = compound: Cc1nc(Nc2ncc(C(=O)Nc3c(C)cccc3Cl)s2)cc(N2CCN(CCO)CC2)n1 [DASATINIB]; assay: surviving fraction relative to DMSO-only wells; higher = less growth inhibition; details: exposure time: 5 days
Summary of the method: (§1)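 Viability was scored with CellTiter-Glo luminescence and normalised to the median of DMSO-only wells as surviving fraction. Beforehand, log-phase tumour cell lines were seeded at 250–500 cells per well in 384-well plates, allowed 24 hours, and exposed continuously for five days to inhibitors at 0.5, 1, 5, 10, 50, 100, 500 and 1000 nM. Only lines whose three screens gave replicate Pearson r >0.7 and median Z' >0.3 were kept.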

[2] = compound: Oc1nc(-c2ccc(C(F)(F)F)cc2)nc2c1CSCC2 [XAV-939]; assay: as above; details: exposure time: 5 days
Summary of the method: as §1

| Test System | surviving fraction ([1]; 0.5 nM) | surviving fraction ([1]; 1 nM) | surviving fraction ([1]; 5 nM) | surviving fraction ([1]; 10 nM) | surviving fraction ([1]; 50 nM) | surviving fraction ([1]; 100 nM) | surviving fraction ([1]; 500 nM) | surviving fraction ([1]; 1000 nM) | surviving fraction ([2]; 0.5 nM) | surviving fraction ([2]; 1 nM) | surviving fraction ([2]; 5 nM) | surviving fraction ([2]; 10 nM) | surviving fraction ([2]; 50 nM) | surviving fraction ([2]; 100 nM) | surviving fraction ([2]; 500 nM) | surviving fraction ([2]; 1000 nM) |
| --- | --- | --- | --- | --- | --- | --- | --- | --- | --- | --- | --- | --- | --- | --- | --- | --- |
| MDAMB436 BREAST | 0.793 ± 0.052 | 0.861 ± 0.061 | 0.811 ± 0.091 | 0.826 ± 0.094 | 0.824 ± 0.082 | 0.775 ± 0.057 | 0.783 ± 0.061 | 0.757 ± 0.034 | 0.957 ± 0.092 | 0.911 ± 0.088 | 0.923 ± 0.013 | 0.968 ± 0.079 | 0.959 ± 0.075 | 0.958 ± 0.081 | 0.856 ± 0.049 | 0.82 ± 0.011 |
| MDAMB453 BREAST | 1.03 ± 0.046 | 0.995 ± 0.047 | 1.06 ± 0.018 | 1 ± 0.047 | 1.03 ± 0.025 | 1.02 ± 0.052 | 1 ± 0.036 | 1.02 ± 0.091 | 0.991 ± 0.053 | 1.02 ± 0.034 | 1.1 ± 0.088 | 1.08 ± 0.043 | 1.06 ± 0.04 | 1.12 ± 0.074 | 1.02 ± 0.069 | 0.961 ± 0.049 |
| MDAMB468 BREAST | 0.872 ± 0.069 | 0.881 ± 0.038 | 0.909 ± 0.028 | 0.836 ± 0.11 | 0.858 ± 0.099 | 0.718 ± 0.065 | 0.488 ± 0.055 | 0.481 ± 0.055 | 1.08 ± 0.041 | 1.04 ± 0.061 | 1.04 ± 0.039 | 1.08 ± 0.038 | 1.09 ± 0.014 | 1.05 ± 0.033 | 0.988 ± 0.072 | 0.964 ± 0.043 |
| MFM223 BREAST | 0.778 ± 0.17 | 0.785 ± 0.2 | 0.767 ± 0.18 | 0.684 ± 0.05 | 0.834 ± 0.059 | 0.86 ± 0.1 | 0.788 ± 0.091 | 0.68 ± 0.06 | 1.18 ± 0.037 | 1.11 ± 0.062 | 1.12 ± 0.023 | 1.112 ± 0.0058 | 0.913 ± 0.034 | 1.08 ± 0.043 | 0.891 ± 0.059 | 0.685 ± 0.033 |
| MG63 BONE | 0.899 ± 0.035 | 0.901 ± 0.013 | 0.785 ± 0.015 | 0.691 ± 0.0046 | 0.469 ± 0.0076 | 0.357 ± 0.012 | 0.204 ± 0.0021 | 0.194 ± 0.0071 | 0.98 ± 0.028 | 1.03 ± 0.034 | 1.025 ± 0.0083 | 1.09 ± 0.018 | 0.947 ± 0.034 | 0.923 ± 0.03 | 0.7 ± 0.0078 | 0.723 ± 0.021 |
| MHM BONE | 0.966 ± 0.032 | 0.933 ± 0.058 | 0.846 ± 0.065 | 0.815 ± 0.049 | 0.686 ± 0.011 | 0.635 ± 0.0097 | 0.525 ± 0.0055 | 0.488 ± 0.018 | 0.999 ± 0.011 | 1.02 ± 0.033 | 1.024 ± 0.009 | 1.03 ± 0.033 | 0.96 ± 0.081 | 1.04 ± 0.012 | 0.963 ± 0.005 | 0.949 ± 0.029 |
| NCIH441 LUNG | 0.994 ± 0.053 | 1.01 ± 0.052 | 0.878 ± 0.085 | 0.921 ± 0.046 | 0.846 ± 0.058 | 0.557 ± 0.056 | 0.462 ± 0.073 | 0.341 ± 0.046 | 0.962 ± 0.096 | 1.07 ± 0.052 | 1.02 ± 0.064 | 1.07 ± 0.065 | 1.02 ± 0.077 | 1.06 ± 0.054 | 1.01 ± 0.045 | 0.918 ± 0.052 |
| NOS1 BONE | 0.817 ± 0.083 | 0.726 ± 0.086 | 0.587 ± 0.026 | 0.464 ± 0.021 | 0.296 ± 0.004 | 0.256 ± 0.028 | 0.2 ± 0.026 | 0.193 ± 0.014 | 1.11 ± 0.086 | 1.06 ± 0.045 | 1.29 ± 0.26 | 1.14 ± 0.074 | 1.17 ± 0.083 | 1.06 ± 0.096 | 0.783 ± 0.1 | 0.778 ± 0.065 |
